The target in one test is DgSTING. The test is described as follows: EMSA titration with […]-labeled ligand. It is filed as binding, Diaphanoeca grandis.
The target in another test is SdSTING. The test is described as follows: EMSA titration with […]-labeled ligand. In kind it is binding, Stephanoeca diplocostata. (In general: In EMSA bound probe runs differently from free probe, usually more slowly.)

Molecules are shown by their SMILES. pKd: −log10 of the molar value.

The source of these data is paper doi:10.1101/2025.09.04.674280 (bioRxiv, 2025).

By pKd is commonly meant the negative decadic logarithm of the Kd, by convention in mol/L. Regarding `Nc1nc2c(ncn2[C@@H]2O[C@@H]3COP(=O)(O)O[C@H]4[C@@H](O)[C@H](n5cnc6c(=O)[nH]c(N)nc65)O[C@@H]4COP(=O)(O)O[C@H]3[C@H]2O)c(=O)[nH]1` [3′3′-c-di-GMP], the pKd on DgSTING is 6.23; at SdSTING, 5.76.
